Test results from ChEMBL document CHEMBL1201862, “PubChem BioAssay data set” (2004).
One block for each compound: values may come before it. Calls of active or inactive are those of the source.

How the values were obtained:
Caspase-3 = biological target: T1, Caspase-3 (Homo sapiens, UniProt P42574); assay type: functional;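 note: Dose-response selectivity test against caspase-3 for candidate inhibitors of sentrin-specific proteases (SENPs)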
T1 sequence (P42574 whole entry): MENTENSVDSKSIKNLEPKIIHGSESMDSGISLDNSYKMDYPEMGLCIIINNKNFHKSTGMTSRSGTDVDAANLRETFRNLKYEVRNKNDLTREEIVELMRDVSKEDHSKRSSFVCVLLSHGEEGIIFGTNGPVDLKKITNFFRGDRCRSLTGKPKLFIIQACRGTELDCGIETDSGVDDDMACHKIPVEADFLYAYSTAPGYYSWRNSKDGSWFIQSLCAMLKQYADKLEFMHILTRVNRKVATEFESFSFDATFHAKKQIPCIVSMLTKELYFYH

[1] = biological target: T2, Sentrin-specific protease 7 (Homo sapiens, UniProt Q9BQF6); assay type: functional;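 note: Luminescence-based dose-response confirmation of ultra-high-throughput screening hits, measuring inhibition of SENP7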
T2 sequence (Q9BQF6 whole entry): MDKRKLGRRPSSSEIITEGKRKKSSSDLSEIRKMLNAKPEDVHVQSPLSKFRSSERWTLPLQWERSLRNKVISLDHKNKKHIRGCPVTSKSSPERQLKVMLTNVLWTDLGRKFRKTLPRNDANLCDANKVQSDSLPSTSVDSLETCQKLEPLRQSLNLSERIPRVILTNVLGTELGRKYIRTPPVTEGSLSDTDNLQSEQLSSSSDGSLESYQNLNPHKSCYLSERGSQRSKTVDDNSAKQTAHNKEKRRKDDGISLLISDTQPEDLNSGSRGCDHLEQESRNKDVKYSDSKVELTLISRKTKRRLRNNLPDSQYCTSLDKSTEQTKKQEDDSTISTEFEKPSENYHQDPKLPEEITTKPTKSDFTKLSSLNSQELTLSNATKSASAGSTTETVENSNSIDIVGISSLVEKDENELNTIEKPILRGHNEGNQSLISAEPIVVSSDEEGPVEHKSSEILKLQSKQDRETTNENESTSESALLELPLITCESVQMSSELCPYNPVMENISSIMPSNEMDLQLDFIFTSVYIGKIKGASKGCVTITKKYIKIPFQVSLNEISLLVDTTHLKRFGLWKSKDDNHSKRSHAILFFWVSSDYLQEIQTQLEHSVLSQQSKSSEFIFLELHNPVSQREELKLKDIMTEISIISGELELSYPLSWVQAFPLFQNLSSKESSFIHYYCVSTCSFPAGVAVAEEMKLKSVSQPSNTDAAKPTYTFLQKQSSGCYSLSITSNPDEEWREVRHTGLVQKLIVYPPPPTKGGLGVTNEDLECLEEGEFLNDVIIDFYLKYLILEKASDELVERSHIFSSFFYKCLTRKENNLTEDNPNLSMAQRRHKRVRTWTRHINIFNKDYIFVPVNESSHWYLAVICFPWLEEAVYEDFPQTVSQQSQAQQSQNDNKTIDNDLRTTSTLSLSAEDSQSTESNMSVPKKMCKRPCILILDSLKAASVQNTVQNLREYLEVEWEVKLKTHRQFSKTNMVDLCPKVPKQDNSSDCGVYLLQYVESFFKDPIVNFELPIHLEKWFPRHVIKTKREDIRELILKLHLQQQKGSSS

[2] = biological target: T3, Sentrin-specific protease 6 (Homo sapiens, UniProt Q9GZR1); assay type: functional;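 note: Luminescence-based dose-response confirmatory assay of SENP6 inhibition, following up an ultra-high-throughput screen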
T3 sequence (Q9GZR1 whole entry): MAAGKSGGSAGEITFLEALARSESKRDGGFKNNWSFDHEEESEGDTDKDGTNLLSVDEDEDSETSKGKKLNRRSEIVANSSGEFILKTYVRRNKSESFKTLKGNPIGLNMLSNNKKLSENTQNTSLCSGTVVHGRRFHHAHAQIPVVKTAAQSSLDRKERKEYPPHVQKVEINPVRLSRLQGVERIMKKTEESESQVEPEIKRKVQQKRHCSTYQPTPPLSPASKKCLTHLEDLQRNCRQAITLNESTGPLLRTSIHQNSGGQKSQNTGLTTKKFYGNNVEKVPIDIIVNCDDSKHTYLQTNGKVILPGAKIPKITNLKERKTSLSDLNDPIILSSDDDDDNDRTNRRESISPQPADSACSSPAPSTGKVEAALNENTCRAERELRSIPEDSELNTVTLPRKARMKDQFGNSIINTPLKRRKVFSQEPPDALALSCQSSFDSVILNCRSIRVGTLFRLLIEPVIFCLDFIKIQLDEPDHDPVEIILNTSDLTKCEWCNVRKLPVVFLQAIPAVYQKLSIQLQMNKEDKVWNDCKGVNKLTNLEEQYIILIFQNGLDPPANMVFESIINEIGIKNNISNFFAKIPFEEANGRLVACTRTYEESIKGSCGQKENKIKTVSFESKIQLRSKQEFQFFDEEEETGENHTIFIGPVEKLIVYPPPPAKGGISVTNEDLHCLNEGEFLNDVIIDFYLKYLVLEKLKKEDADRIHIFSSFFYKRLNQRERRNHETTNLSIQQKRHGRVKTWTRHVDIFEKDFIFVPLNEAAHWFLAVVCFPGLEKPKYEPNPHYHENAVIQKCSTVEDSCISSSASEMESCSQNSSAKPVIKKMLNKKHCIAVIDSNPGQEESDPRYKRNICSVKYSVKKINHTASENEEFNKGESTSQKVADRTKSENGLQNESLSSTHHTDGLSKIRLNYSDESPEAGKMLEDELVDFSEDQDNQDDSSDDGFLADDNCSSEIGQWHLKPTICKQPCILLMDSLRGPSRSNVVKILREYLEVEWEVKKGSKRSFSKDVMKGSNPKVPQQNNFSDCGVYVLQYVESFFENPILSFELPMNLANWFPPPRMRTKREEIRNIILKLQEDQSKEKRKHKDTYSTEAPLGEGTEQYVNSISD

[3] = biological target: T4, Sentrin-specific protease 8 (Homo sapiens, UniProt Q96LD8); assay type: functional;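 note: luminescence read-out of SENP8 inhibition, dose-response confirmation following an ultra-high-throughput screen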
T4 sequence (Q96LD8 whole entry): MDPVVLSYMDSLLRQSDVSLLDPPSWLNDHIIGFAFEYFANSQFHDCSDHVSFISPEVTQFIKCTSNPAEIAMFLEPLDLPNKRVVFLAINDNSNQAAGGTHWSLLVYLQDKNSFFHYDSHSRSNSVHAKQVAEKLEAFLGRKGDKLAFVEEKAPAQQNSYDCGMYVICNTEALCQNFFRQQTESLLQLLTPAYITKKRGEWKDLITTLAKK

[4] = biological target: T5, Oxysterols receptor LXR-beta (Homo sapiens, UniProt P55055); assay type: functional, cell-based
T5 sequence (P55055 whole entry): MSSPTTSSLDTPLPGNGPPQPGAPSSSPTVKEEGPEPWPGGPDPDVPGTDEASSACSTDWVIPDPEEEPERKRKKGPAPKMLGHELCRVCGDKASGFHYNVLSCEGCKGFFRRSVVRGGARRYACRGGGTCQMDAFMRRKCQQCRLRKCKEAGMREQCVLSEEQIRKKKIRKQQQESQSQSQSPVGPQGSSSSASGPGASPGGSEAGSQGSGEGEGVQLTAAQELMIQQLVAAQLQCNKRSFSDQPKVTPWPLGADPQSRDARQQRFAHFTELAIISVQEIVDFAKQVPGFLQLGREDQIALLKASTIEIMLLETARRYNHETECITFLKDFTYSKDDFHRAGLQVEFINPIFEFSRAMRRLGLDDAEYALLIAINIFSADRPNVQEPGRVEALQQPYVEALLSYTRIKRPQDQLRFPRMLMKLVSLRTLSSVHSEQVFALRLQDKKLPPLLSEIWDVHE

[5] = biological target: T5, Oxysterols receptor LXR-beta; assay type: functional, cell-based; remark: listed apart in the source
[6] = A375 melanoma cell viability loss, dose response, counter-screen for MITF inhibitor project, CellTiter-Glo luminescence, dry powder, set 4 (AID 624364); assay type: functional, cell-based; details: A-375;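 note: A375 melanoma cells are MITF independent so this is a counter screen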
[7] = A375 melanoma cell cytotoxicity, dose response, counter-screen for MITF inhibitor project, CellTiter-Glo luminescence, dry powder, set 2 (AID 624489); assay type: functional, cell-based; details: A-375;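 note: actives are compounds lowering A375 viability meaning general cytotoxicity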
[8] = biological target: NAD-dependent protein deacylase sirtuin-5, mitochondrial (Homo sapiens, UniProt Q9NXA8); assay: SIRT5 desuccinylase inhibitors, dose response, biochemical, fluorescence imaging, cherry-pick, set 5 (AID 720591);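 note: desuccinylation of succinyl peptide AMC substrate read as fluorescence after trypsin release; potency of inhibitors that lower fluorescence and may act on trypsin instead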
[9] = inhibitors of PGC1a acetylation in cells, dose response, cell-based, cherry-picked samples (AID 720514); assay type: functional;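 note: potency may reflect raised or lowered acetylation signal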
[10] = biological target: T6, Short transient receptor potential channel 4 (Mus musculus, UniProt Q9QUQ5); assay: mouse TRPC4 channel inhibitors, dose response, cell-based, HEK293 TRPC4/mu-opioid, Fluo-4 calcium (AID 434942); assay type: functional;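 note: potency of inhibitors blocking the TRPC4 calcium response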
T6 sequence (Q9QUQ5 whole entry): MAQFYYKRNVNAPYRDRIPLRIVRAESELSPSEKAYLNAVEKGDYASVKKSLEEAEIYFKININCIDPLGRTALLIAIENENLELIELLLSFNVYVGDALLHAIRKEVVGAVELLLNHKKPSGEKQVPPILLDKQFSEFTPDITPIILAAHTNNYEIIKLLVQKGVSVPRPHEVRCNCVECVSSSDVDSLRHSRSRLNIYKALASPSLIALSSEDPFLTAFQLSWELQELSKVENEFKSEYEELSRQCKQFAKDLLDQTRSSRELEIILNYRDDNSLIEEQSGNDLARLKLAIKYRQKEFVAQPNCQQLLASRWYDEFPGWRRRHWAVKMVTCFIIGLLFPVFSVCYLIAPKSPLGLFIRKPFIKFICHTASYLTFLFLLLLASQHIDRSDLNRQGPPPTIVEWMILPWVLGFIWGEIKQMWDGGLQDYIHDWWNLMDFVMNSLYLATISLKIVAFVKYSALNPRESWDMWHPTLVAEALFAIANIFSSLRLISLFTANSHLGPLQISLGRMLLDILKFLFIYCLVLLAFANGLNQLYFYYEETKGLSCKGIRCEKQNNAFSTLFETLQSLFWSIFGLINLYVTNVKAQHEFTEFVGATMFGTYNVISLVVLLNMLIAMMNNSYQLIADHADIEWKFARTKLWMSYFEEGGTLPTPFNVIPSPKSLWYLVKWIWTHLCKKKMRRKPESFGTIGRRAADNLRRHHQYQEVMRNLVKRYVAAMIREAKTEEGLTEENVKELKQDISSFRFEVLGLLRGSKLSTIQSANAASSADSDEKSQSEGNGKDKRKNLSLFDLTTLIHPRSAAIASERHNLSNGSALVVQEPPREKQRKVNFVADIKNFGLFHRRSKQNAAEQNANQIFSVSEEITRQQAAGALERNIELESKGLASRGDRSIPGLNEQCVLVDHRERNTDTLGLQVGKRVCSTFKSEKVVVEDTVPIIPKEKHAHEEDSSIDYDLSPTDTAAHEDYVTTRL

[11] = biological target: T7, DNA repair and recombination protein RAD54-like (Homo sapiens, UniProt Q92698); assay: inhibitors of human RAD54 branch migration, confirmation, biochemical, fluorescence, cherry-picked samples, dose series (AID 651657); assay type: functional
T7 sequence (Q92698 whole entry): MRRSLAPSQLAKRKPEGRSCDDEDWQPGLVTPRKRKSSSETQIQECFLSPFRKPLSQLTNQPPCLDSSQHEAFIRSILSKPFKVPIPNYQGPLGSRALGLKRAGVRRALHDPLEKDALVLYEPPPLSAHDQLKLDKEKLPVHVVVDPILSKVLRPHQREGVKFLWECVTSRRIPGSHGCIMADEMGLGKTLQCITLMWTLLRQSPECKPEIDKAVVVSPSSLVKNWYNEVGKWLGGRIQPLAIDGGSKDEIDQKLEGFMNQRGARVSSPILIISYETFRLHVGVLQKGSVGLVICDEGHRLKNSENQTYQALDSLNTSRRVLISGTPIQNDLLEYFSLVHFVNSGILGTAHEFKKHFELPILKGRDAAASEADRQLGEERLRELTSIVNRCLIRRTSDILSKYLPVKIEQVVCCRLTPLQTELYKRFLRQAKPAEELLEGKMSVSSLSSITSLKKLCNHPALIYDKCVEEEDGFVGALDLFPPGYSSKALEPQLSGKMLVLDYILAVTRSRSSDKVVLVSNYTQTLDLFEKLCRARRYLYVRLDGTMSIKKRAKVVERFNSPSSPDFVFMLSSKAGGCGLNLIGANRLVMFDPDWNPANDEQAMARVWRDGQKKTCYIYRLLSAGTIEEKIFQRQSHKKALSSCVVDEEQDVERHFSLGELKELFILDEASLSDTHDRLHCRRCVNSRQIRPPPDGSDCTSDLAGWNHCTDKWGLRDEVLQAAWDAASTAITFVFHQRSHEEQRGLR

[12] = P. falciparum 3D7-ScDHODH growth inhibitors, dose response, SYBR Green, dry powder samples (AID 1159570); assay type: functional, cell-based;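 note: parasite growth measured after 72 hours of compound exposure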
[13] = HepG2 cell cytotoxicity, dose response, cytotoxicity control, plate reader, dry powder samples (AID 1159569); assay type: functional, cell-based;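 note: inhibitor potency with signal falling toward the positive control level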
[14] = P. falciparum Dd2 growth inhibitors, dose response, SYBR Green, cherry-picked samples (AID 1159567); assay type: functional, cell-based
[15] = P. falciparum Dd2 growth inhibitors, dose response, SYBR Green, dry powder samples (AID 1159566); assay type: functional, cell-based;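 note: potency for growth inhibition with lower SYBR green DNA signal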
[16] = P. falciparum ATP4 D1247Y mutant growth inhibitors, dose response, NITD609-resistant line, SYBR Green, dry powder (AID 1159571); assay type: functional, cell-based;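 note: parasites synchronized at ring stage by sorbitol before testing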
Paired box protein Pax-8 = Paired box protein Pax-8 (Homo sapiens, UniProt Q06710); assay: inhibitors of PAX8-driven TPO luciferase reporter, dose response, RMG-I cells, cherry-pick (AID 687027); assay type: functional, cell-based;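 note: luciferase reporter driven by Pax8 target thyroperoxidase promoter measured by SteadyGlo luminescence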
[17] = NIH:OVCAR-3 ovarian cancer cell cytotoxicity, dose response, PAX8 inhibitor project, plate reader, dry powder samples (AID 743044); assay type: functional, cell-based

NAD-dependent protein deacylase sirtuin-5, mitochondrial, sequence (Q9NXA8 whole entry): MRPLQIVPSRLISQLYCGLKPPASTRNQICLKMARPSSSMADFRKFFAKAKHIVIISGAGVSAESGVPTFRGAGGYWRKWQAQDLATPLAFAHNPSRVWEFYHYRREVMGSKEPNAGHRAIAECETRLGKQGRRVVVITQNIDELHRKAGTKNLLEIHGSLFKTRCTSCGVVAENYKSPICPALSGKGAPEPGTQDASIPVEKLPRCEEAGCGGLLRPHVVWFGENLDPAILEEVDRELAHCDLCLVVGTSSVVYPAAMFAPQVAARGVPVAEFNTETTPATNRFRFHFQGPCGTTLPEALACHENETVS
Paired box protein Pax-8, sequence (Q06710 whole entry): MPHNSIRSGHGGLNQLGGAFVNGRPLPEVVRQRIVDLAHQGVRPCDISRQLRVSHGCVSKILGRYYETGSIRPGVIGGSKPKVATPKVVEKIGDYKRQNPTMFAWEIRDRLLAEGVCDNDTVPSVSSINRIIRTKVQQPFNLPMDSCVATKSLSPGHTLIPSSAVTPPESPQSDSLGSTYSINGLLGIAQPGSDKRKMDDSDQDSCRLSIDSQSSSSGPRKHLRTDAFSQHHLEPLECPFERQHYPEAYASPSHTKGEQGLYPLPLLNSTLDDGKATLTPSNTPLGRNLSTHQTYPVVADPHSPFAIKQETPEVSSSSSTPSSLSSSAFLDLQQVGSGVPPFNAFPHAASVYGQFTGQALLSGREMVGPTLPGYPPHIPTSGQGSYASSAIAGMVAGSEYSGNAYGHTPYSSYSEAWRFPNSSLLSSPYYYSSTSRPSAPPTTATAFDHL

IC50 (Caspase-3): 40.4 µM (active)
IC50 [1]: 7.36 µM (active)
IC50 [2]: > 100 µM (inactive)
EC50 [4]: > 67.5 µM (inactive)
EC50 [5]: > 67.5 µM (inactive)
SMILES: Cc1ccc(-c2nnc(Nc3ccccc3)[nH]2)cc1
IC50 [3]: > 100 µM (inactive)

SMILES: CN1CCN(C2=C(Nc3ccccc3)C(=O)c3ccccc3C2=O)CC1
AC50 [6]: 61.7 µM (active)
AC50 [7]: 24 µM (active)

SMILES: Cc1ccc(-c2n[nH]c(Nc3ccccc3)n2)cc1
EC50 (cells): > 67.5 µM (inactive)

AC50 [8]: > 30 µM (inactive)
SMILES: CCOC(=O)Cc1csc(NC(=O)Cn2cnc3c2c(=O)n(C)c(=O)n3C)n1

SMILES: C[C@@H]1CN([C@H](C)CO)C(=O)c2cccc(NC(=O)c3nc4ccccc4s3)c2O[C@@H]1CN(C)CC1CCCCC1
AC50 [9]: 27.1 µM (active)

EC50 [10]: 0.531 µM (active)
AC50 [11]: 34.4 µM (active)
AC50 [8]: > 30 µM (inactive)
SMILES: Cc1ccc(Nc2cc(C)nc3c(C)cccc23)cc1

SMILES: N#C[C@@H]1[C@@H](c2ccc(C#Cc3ccc(F)cc3)cc2)[C@H](CO)N1C(=O)C1CCCC1
AC50 [12]: 1.82 µM (active)
AC50 [13]: 25.5 µM (active)
AC50 [14]: 2.53 µM (active)
AC50 [15]: 1.52 µM (active)
AC50 [16]: 1.99 µM (active)

SMILES: C[C@H]1CN([C@@H](C)CO)C(=O)Cc2cc(NC(=O)Nc3ccc(F)cc3)ccc2O[C@H]1CN(C)Cc1ccc(Cl)c(Cl)c1
AC50 (Paired box protein Pax-8): 7.04 µM (active)
AC50 [17]: 32.5 µM (active)
